One may read the Kd as the constant that tells how readily two partners part at equilibrium. A word on the pKd: it is the Kd on a negative log10 scale, so that one unit is a factor of ten.

pKd: −log10 of the molar value.

Data on one molecule can be found in patent US12582720B2, “Compound for preventing or treating lipid metabolism-related diseases” (Fudan University, priority 2020, dated 2026).

Assay [1] concerns the target T1, LC3B (Homo sapiens, UniProt Q9GZQ8). Briefly: OI-RD detection of affinity activity with LC3B. It is filed as binding. Further details: Gly-Gly (two glycines added in place of the start Met); His8 (followed by TEV site) (N, cleaved yes); GST (from the pGEX-6P1 backbone) (N, cleaved yes); made in house; host or cells: Escherichia coli BL21(DE3)pLysS. The settings on record: LC3B 238 nM, read-out: Kd (nM), equilibrium dissociation constant of affinity reaction between the compound and LC3B detected by OI-RD. The procedure: Each compound was dot printed 3 copies. The compounds that not fixed on surface of the chips were washed, and the chips were sealed and cleaned. OI-RD microscope was used to scan the images. […] The chips were washed and scanned. OI-RD images before, during and after incubation with target protein were obtained. The signal change in real-time dynamic change image was analyzed, and the signal was collected once per 10 millisecond.

In assay [2] the target is T1, LC3B. Briefly: MST detection of affinity activity with LC3B. It is filed as binding. Further details: His8 (with TEV site) (N); made in house; host or cells: Escherichia coli BL21(DE3)pLysS. The settings on record: MST; read-out: Kd, equilibrium dissociation constant between the LC3 binding compound and LC3B. In outline:
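Microscale thermophoresis uses recombinant GST-LC3B labelled with RED-NHS fluorophore at 500 nM. Buffer is 20 mM HEPES pH 7.4 with 150 mM NaCl. Readings are taken at 40% infrared laser power and 20% LED power.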

In assay [3] the test system is lipid droplets in wild type MEF cells. Briefly: Reduction of OA-induced lipid droplets in wild type MEF cells (BODIPY 493/503 staining). It is filed as cell-based, mouse. The note with it: MEF, unconjugated compound 5 μM. On the procedure:
(5) OA-BSA stock solution was prepared into OA-BSA working solution (50× final concentration, 200 μM), and 40 μl of OA-BSA working solution was added to each well to induce lipid droplets. For the non-OA induction group, 40 μl of 10% BSA solution was added to the control well, and the amount of BSA was the same as that of the experimental group.
Compounds were formulated into DMSO stock solutions. Stock compounds were diluted with DMSO into the indicated concentrations of working solutions prior to use in the treatment of cells. After induction of the lipid droplets with OA for the indicated time, the test compounds were added to the cells respectively. Control wells were replaced with the equal volume of DMSO. Unless otherwise stated, the compounds were diluted into 10× solutions using the culture medium and added to the culture medium for 24 hours of incubation. Cells were treated with compounds in a 37° C. incubator with 5% CO2.
(3) The original medium in the multi-well plates was removed, washed and the cells was fixed, 1 ml of the BODIPY solution prepared in (1) was added to each well, and stained for 15 minutes. The staining solution was aspirated and washed with 1×PBS.
(5) The coverslips laid in the multi-well plates were removed, and imaged with the Zeiss 880 confocal microscope after mounted, and analyzed the size and number of lipid droplets with ImageJ.
Wild type MEF cells were cultured in a DMEM culture medium containing 10% FBS. Cells were plated according to the method as described above (12 well plate was plated with aseptic treated slides). When cells grew to a confluence of 60-70%, lipid droplets were induced with OA for 30 h according to the method as described above.
At the time point of 6th hour after initiation of induction, the cells were treated (treated for 24 hours) with Compound 1A or Compound 2A (compound concentrations were 50 μM, 15.8 μM, 5 μM, 1.58 μM, 0.5 μM, 0.158 μM) according to the method as described above.

Assay [4] deals with lipid droplets in SH-SY5Y cells. Briefly: Reduction of OA-induced lipid droplets in SH-SY5Y cells. It is filed as cell-based, human. The note with it: unconjugated compound 5 μM. The text has this: The reduction of lipid droplets in SH-SY5Y cells by Compound 1A and Compound 2A was detected by a method that was similar to Example 2, and the result was shown in FIG. 18.
The effects of unconjugated LC3 binding Compound A1, A5 and unconjugated lipid droplet probe ORBB […] respectively on lipid droplets in SH-SY5Y cells (FIG. 20A) and MEF cells (FIG. 20B) were detected by a method similar to Example 2.

The test system of assay [5] is lipid droplets in human normal liver cell line QSG7701. Kind of assay: Endogenous lipid droplets in human normal liver cell line QSG7701. It is filed as cell-based. The settings on record: QSG7701, no induction, 5 μM, 24 h. The procedure: 10% FBS+90% RPMI 1640 culture medium was used for cultivation, cell incubator culture condition of 37° C. and 5% CO2 was used. Cells were plated as 50 thousands/well (12 well plate was plated with aseptic treated slides). When cells grew to a confluence of 80-90%, the compound (Compound 1A or Compound 2A, at a concentration of 5 μM) was added for treatment, and LC3 binding Compound A1, A5, lipid droplet probe Sudan IV as well as DMSO acted as a control. […]. In the compounds of present disclosure, LC3 binding moiety was covalently linked with lipid droplet binding moiety, and thus could achieve the effect of reducing liver cell endogenous lipid droplet.

Assay [6] concerns the target LC3 (Homo sapiens, UniProt Q9GZQ8). The settings on record: reported by Li et al., Nature 575, 203-209 (2019); cited from earlier work.
For assay [7], the system named is lipid droplets in 3T3-L1 fat precursor cell differentiated fat cells. Kind of assay: Lipid droplets in 3T3-L1 fat precursor cell differentiated fat cells. It is filed as cell-based, mouse. The settings on record: 3T3-L1 differentiated fat cells, 5 μM, 24 h.
For assay [8], the system named is autophagosome-lipid droplet colocalization in MEF cells. Kind of assay: Colocalization of autophagosome and lipid droplets in mCherry-LC3B transfected MEF cells. The settings on record: 5 μM, 3 h, compared to DMSO control. It is filed as cell-based, mouse. A digest of the protocol: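 mCherry-LC3B expressed in MEF cells by plasmid transfection; lipid droplets induced with OA at 30 h post-transfection, compound added 6 h later for 3 h. Cells fixed, stained with BODIPY and DAPI, and LC3 puncta around lipid droplets imaged by confocal microscopy.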

In the case of `O=C1Nc2ccc(I)cc2C1=Cc1cc(Br)c(O)c(Br)c1` [Compound A1, 3-(3,5-dibromo-4-hydroxylbenzylidene)-5-iodoindolin-2-one, reference compound], the Kd in assay [1] worked out at 468 nM. Moreover, the pKd in assay [2] was 5.32. In addition, the “lipid droplets (number and size)” value in assay [3] and in assay [4] was “did not significantly decrease or become smaller” in each case. For the same molecule, the “endogenous lipid droplets (amount)” value in assay [5] was “no significant effect”. Also, the “binding to LC3” value in assay [6] is “can bind to LC3 with affinity”. Moreover, the “amount/size of lipid droplets” value in assay [7] is “no significant effect”. Further, the “ratio of colocalization of red and green aggregation point (autophagosome-lipid droplet)” value in assay [8] was “No such effect”.
